Assay results reported in patent publication US8263369B2, “Compound ceramidastin, method for producing the same, and use of the same” (Microbial Chemistry Research Foundation, priority 2008, dated 2012).

Experiments:
[1] = molecular target: T1, neutral/alkaline ceramidase (Pseudomonas aeruginosa, UniProt Q9I596); assay: Neutral/alkaline ceramidase activity inhibitory test; type: biochemical; details: enzyme liquid from Pseudomonas aeruginosa culture; C12-NBD Ceramide substrate; pH 8.5; 37° C., 2.5 hours; TLC fluorescence; read-out: neutral/alkaline ceramidase inhibitory activity in terms of IC50 (converted)
T1 construct: the culture liquid was sterilized through filtration; endogenous in cells; host or cells: Pseudomonas aeruginosa (human clinical isolate), sterile-filtered culture supernatant, not purified
Experimental: A seed medium used was prepared as follows. Specifically, 3 g of Nissui Trypto-Soya Broth (product of Nissui Seiyaku) was dissolved in 100 mL of deionized water, and the resultant solution was dispensed into test tubes so that each test tube contained 3 mL of the solution, followed by high-pressure sterilization. Then, Pseudomonas aeruginosa (human clinical isolate) was inoculated into the seed medium in an amount of 2% by volume, and seed culturing was performed in a water bath at 37° C. and 100 rpm for 3 hours.
A synthetic medium for main culturing was prepared as follows. […]
Neutral/alkaline ceramidase activity was measured according to the method used by Okino et al. (J. Biol. Chem. 273, 14368-14373, 1998) with minor modifications. […]
The above solution (20 μL) was spotted onto a TLC plate (MERCK 25 TLC plates 20 cm×20 cm Silica gel 60 F254) and developed (chloroform:methanol ammonia (25%)=90:20:0.5, by volume). Subsequently, Image Reader FLA 5000 (product of FUJIFILM Corporation) was used to measure the fluorescence derived from the substrate, and Science Lab 2001 ImageGauge (product of FUJIFILM Corporation) was used to calculate the inhibitory rate of substrate decomposition.

NC/Nga mice = assay: Therapeutic effects on atopic dermatitis-like model mice (mast cell count in skin); type: in vivo
Source text: Atopic dermatitis-like model mice were used to test ceramidastin for the therapeutic effects on atopic dermatitis. Specifically, the above-obtained enzyme liquid was applied onto the mice to examine the aggravation degree of corneal layer of epidermis and inflammation. In addition, the enzyme liquid and ceramidastin were applied thereonto to examine the effects on the skin brought by inhibiting neutral/alkaline ceramidase activity.
The atopic dermatitis-like model mice used were 6-week-old NC/Nga female mice (product of Charles River). The above NC/Nga mice are used as an atopic dermatitis model (Hiroi et al. Jpn. J. Pharmacol. 76, 175-183, 1998) and have an increased number of mast cells in the skin tissue.
Hair was removed in advance from the 6-week-old NC/Nga female mice under anesthesia (six mice for each group). Subsequently, absorbent cotton impregnated with acetone-ether (1:1) was pressed for 15 sec against them under anesthesia by nembutal. […]
The procedure of the above defatting and applications of ceramidase and ceramidastin was repeated 47 times in total so that it was performed twice in the morning and evening for 5 days a week. […] The thus-formed tissue pieces were stained with toluidine blue, and the number of mast cells in the tissue was counted under a microscope.

T1 sequence (Q9I596 25-670): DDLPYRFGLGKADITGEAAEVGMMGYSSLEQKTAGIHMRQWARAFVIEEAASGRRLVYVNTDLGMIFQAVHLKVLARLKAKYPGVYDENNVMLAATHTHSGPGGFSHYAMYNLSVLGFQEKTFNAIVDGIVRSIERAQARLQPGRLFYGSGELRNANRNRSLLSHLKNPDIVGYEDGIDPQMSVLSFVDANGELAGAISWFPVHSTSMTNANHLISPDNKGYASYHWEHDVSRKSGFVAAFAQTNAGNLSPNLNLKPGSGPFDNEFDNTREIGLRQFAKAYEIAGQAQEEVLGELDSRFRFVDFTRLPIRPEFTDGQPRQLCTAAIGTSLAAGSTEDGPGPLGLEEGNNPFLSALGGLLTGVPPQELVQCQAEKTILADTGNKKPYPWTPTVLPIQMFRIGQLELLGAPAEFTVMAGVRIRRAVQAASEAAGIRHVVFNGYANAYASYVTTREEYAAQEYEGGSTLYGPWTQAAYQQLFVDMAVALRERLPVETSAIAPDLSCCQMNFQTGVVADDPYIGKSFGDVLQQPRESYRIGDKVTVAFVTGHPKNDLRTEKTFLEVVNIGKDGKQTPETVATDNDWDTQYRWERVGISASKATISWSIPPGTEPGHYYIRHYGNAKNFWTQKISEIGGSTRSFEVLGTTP

Structure (SMILES): CCCCCCC(O)C1C2=C(CC(C(O)C(O)C/C=C/CO)CC3=C(C(=O)OC3=O)C1O)C(=O)OC2=O (stereo not drawn) [ceramidastin]
- IC50 [1]: 12 µM
- number of mast cells in mouse skin pieces (NC/Nga mice; NC/Nga female mice, defatting + ceramidase + 0.2 mL ceramidastin 1 mg/mL on skin, 47 times, toluidine blue, ceramidase-applied 22.6±8.5, untreated 13.04±4.38): 15.5±5.2
- effect on increase in the number of mast cells (NC/Nga mice; ceramidase+ceramidastin-applied skin pieces vs ceramidase-applied skin pieces, NC/Nga mice): significantly inhibited
